Assay results as given in BigSolDB 2.1.

SMILES: O=C1CCCC(=O)O1
- solubility (mole fraction) (in 1,2-dichloroethane, 278.15 K): 0.448
- solubility (mole fraction) (in 1,2-dichloroethane, 283.15 K): 0.555
- solubility (mole fraction) (in 1,2-dichloroethane, 288.15 K): 0.631
- solubility (mole fraction) (in 1,2-dichloroethane, 293.15 K): 0.7
- solubility (mole fraction) (in 1,2-dichloroethane, 298.15 K): 0.773
- solubility (mole fraction) (in 1,2-dichloroethane, 303.15 K): 0.807
- solubility (mole fraction) (in 1,2-dichloroethane, 308.15 K): 0.866
- solubility (mole fraction) (in 1,2-dichloroethane, 313.15 K): 0.922
- solubility (mole fraction) (in DMAc, 278.15 K): 0.73
- solubility (mole fraction) (in DMAc, 283.15 K): 0.789
- solubility (mole fraction) (in DMAc, 288.15 K): 0.83
- solubility (mole fraction) (in DMAc, 293.15 K): 0.852
- solubility (mole fraction) (in DMAc, 298.15 K): 0.877
- solubility (mole fraction) (in DMAc, 303.15 K): 0.905
- solubility (mole fraction) (in DMAc, 308.15 K): 0.923
- solubility (mole fraction) (in DMAc, 313.15 K): 0.935
- solubility (mole fraction) (in DMF, 278.15 K): 0.549
- solubility (mole fraction) (in DMF, 283.15 K): 0.594
- solubility (mole fraction) (in DMF, 288.15 K): 0.663
- solubility (mole fraction) (in DMF, 293.15 K): 0.705
- solubility (mole fraction) (in DMF, 298.15 K): 0.74
- solubility (mole fraction) (in DMF, 303.15 K): 0.795
- solubility (mole fraction) (in DMF, 308.15 K): 0.822
- solubility (mole fraction) (in DMF, 313.15 K): 0.87
- solubility (mole fraction) (in acetone, 278.15 K): 0.444
- solubility (mole fraction) (in acetone, 283.15 K): 0.524
- solubility (mole fraction) (in acetone, 288.15 K): 0.623
- solubility (mole fraction) (in acetone, 293.15 K): 0.676
- solubility (mole fraction) (in acetone, 298.15 K): 0.76
- solubility (mole fraction) (in acetone, 303.15 K): 0.815
- solubility (mole fraction) (in acetone, 308.15 K): 0.884
- solubility (mole fraction) (in acetone, 313.15 K): 0.918
- solubility (mole fraction) (in acetonitrile, 278.15 K): 0.591
- solubility (mole fraction) (in acetonitrile, 283.15 K): 0.648
- solubility (mole fraction) (in acetonitrile, 288.15 K): 0.705
- solubility (mole fraction) (in acetonitrile, 293.15 K): 0.764
- solubility (mole fraction) (in acetonitrile, 298.15 K): 0.809
- solubility (mole fraction) (in acetonitrile, 303.15 K): 0.844
- solubility (mole fraction) (in acetonitrile, 308.15 K): 0.879
- solubility (mole fraction) (in acetonitrile, 313.15 K): 0.918
- solubility (mole fraction) (in dichloromethane, 278.15 K): 0.425
- solubility (mole fraction) (in dichloromethane, 283.15 K): 0.51
- solubility (mole fraction) (in dichloromethane, 288.15 K): 0.597
- solubility (mole fraction) (in dichloromethane, 293.15 K): 0.641
- solubility (mole fraction) (in dichloromethane, 298.15 K): 0.709
- solubility (mole fraction) (in dichloromethane, 303.15 K): 0.78
- solubility (mole fraction) (in dichloromethane, 308.15 K): 0.824
- solubility (mole fraction) (in dichloromethane, 313.15 K): 0.896
- solubility (mole fraction) (in ethyl acetate, 278.15 K): 0.107
- solubility (mole fraction) (in ethyl acetate, 283.15 K): 0.156
- solubility (mole fraction) (in ethyl acetate, 288.15 K): 0.206
- solubility (mole fraction) (in ethyl acetate, 293.15 K): 0.273
- solubility (mole fraction) (in ethyl acetate, 298.15 K): 0.383
- solubility (mole fraction) (in ethyl acetate, 303.15 K): 0.506
- solubility (mole fraction) (in ethyl acetate, 308.15 K): 0.618
- solubility (mole fraction) (in ethyl acetate, 313.15 K): 0.75
- solubility (mole fraction) (in methyl acetate, 278.15 K): 0.294
- solubility (mole fraction) (in methyl acetate, 283.15 K): 0.384
- solubility (mole fraction) (in methyl acetate, 288.15 K): 0.444
- solubility (mole fraction) (in methyl acetate, 293.15 K): 0.551
- solubility (mole fraction) (in methyl acetate, 298.15 K): 0.646
- solubility (mole fraction) (in methyl acetate, 303.15 K): 0.7
- solubility (mole fraction) (in methyl acetate, 308.15 K): 0.808
- solubility (mole fraction) (in methyl acetate, 313.15 K): 0.874
- solubility (mole fraction) (in n-butyl acetate, 278.15 K): 0.12
- solubility (mole fraction) (in n-butyl acetate, 283.15 K): 0.145
- solubility (mole fraction) (in n-butyl acetate, 288.15 K): 0.181
- solubility (mole fraction) (in n-butyl acetate, 293.15 K): 0.246
- solubility (mole fraction) (in n-butyl acetate, 298.15 K): 0.322
- solubility (mole fraction) (in n-butyl acetate, 303.15 K): 0.451
- solubility (mole fraction) (in n-butyl acetate, 308.15 K): 0.582
- solubility (mole fraction) (in n-butyl acetate, 313.15 K): 0.736
- solubility (mole fraction) (in n-propyl acetate, 278.15 K): 0.234
- solubility (mole fraction) (in n-propyl acetate, 283.15 K): 0.301
- solubility (mole fraction) (in n-propyl acetate, 288.15 K): 0.407
- solubility (mole fraction) (in n-propyl acetate, 293.15 K): 0.505
- solubility (mole fraction) (in n-propyl acetate, 298.15 K): 0.592
- solubility (mole fraction) (in n-propyl acetate, 303.15 K): 0.712
- solubility (mole fraction) (in n-propyl acetate, 308.15 K): 0.817
- solubility (mole fraction) (in n-propyl acetate, 313.15 K): 0.908
